Measured values from patent publication US8318504B2, “MRP2 efflux pathway prognostic method” (priority 2009, dated 2012).

Tests used:
OATP1B1 = target: T1, OATP1B1 (Homo sapiens, UniProt Q9Y6L6); test: Uptake of CLF into CHO cells expressing OATP1B1; format: cell-based; conditions: 1 μmol/L CLF, 1 or 5 minutes
T1 construct: expressed in transfected cells; host or cells: CHO cells (stably transfected; Treiber et al. 2007)
T1 sequence (Q9Y6L6 1-691): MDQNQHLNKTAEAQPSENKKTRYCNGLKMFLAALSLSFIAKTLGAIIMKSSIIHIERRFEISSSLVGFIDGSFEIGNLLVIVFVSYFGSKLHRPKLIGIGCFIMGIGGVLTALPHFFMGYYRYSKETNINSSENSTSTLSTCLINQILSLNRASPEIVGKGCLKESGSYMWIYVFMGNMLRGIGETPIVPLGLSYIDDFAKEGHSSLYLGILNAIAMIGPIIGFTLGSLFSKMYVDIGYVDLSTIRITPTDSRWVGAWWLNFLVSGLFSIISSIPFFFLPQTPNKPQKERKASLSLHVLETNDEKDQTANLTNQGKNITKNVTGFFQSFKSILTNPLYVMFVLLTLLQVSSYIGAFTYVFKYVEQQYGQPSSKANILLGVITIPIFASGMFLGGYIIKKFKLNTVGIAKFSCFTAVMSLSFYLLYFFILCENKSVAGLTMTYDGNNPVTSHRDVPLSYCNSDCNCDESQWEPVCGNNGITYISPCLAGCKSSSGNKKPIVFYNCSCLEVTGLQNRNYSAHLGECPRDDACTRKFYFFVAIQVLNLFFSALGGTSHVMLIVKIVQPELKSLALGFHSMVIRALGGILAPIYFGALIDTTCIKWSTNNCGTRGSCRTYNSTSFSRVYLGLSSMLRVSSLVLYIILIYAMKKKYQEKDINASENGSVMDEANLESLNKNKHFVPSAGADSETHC
Experimental: cDNA for human NTCP [Hagenbuch et al., J Clin Invest 1994 March; 93(3): 1326-1331] was cut with EcoRV and HindI and the coding region ligated into pcDNA5/FRT (Invitrogen, Life-Technologies, Carlsbad, Calif.). CHO FlpIn cells (Invitrogen, Life-Technologies) were transfected with the resulting construct using Lipofectamine® 2000 (Invitrogen, Life-Technologies). Stably transfected cells were selected with 550 μg Hygromycin-B in HAM-F12 medium (Gibco, Invitrogen, Life-Technologies). Transfected cells were cloned with the limiting dilution method. […] To further characterize the cloned cells, immunofluorescence localization of NTCP using a polyclonal antibody against NTCP [Kullak-Ublick G et al., Gastroenterology 1997 October; 113(4):1295-1305] was performed as described by Huber R D et al. [Am J Physiol Cell Physiol 2007 February; 292(2):[…]-[…]]. CHO cells expressing OATP1B1, OATP1B3 and OATP2B1 were described previously [Treiber et al., DMD 35:1400-1407, 2007]. […] After complete solubilization, 1.5 ml was used to measure fluorescence in a Perkin-Elmer LS-5 luminescence-spectrometer set at λexe 486 nm (slit 10 nm) and λem 520 nm (slit 5 nm). Protein was determined with the bicinchoninic acid method using a kit from Interchim (Montfuçon, France). […]

ABCC2 = target: T2, ABCC2 (Homo sapiens, UniProt Q92887); test: ATP-dependent transport of CLF into Sf21 membrane vesicles containing ABCC2; format: biochemical; parameters: Vmax of ABCC2 mediated transport of CLF: unit not given here
T2 construct: made in house; host or cells: Sf21 insect cells, baculovirus; plasma membrane vesicles
Experimental: The production of recombinant baculovirus was as described by de Waart et al. [Liver Int 2006 April; 26(3):362-368]. ABCC3 and ABCG2-recombinant baculovirus were a kind gift from Borst [Breedveld P. et al., Cancer Res 2004 Aug. 15; 64(16):5804-5811 and Borst P. et al., J Biol Chem 2001 Dec. 7; 276(49):46400-46407.]. ABCB11-recombinant baculovirus was a kind gift from Thompson [Thompson R J et al., Gastroenterology 2002 November; 123(5):1649-1658]. Sf21 cells grown at 27° C. were infected with ABCB11, ABCC2, ABCC3 and ABCG2-cDNA containing baculovirus. Cells were harvested at 2-4 days after infection. Membrane vesicle preparation was as described by de Waart et al. [Liver Int 2006 April; 26(3):362-368].
Transport studies with membrane vesicles were performed using the rapid filtration technique as described by Heijn M et al. [Am J Physiol 1992 January; 262(1 Pt 1):C104-C110]. Radiolabel was measured with a scintillation counter. When CLF was used as a probe, filters were placed in a glass tube, 0.1% Triton-X-100 was added and the tubes vortexed. Samples were pipetted in 96-well plates (Kartell, Noviglio, Italy) and the amount CLF quantitated by measurement of fluorescence at λexe 485 nm and λcm 520 nm using a NovoStar (BMG-labtech, Offenburg, Germany). […]

T2 sequence (Q92887 whole entry): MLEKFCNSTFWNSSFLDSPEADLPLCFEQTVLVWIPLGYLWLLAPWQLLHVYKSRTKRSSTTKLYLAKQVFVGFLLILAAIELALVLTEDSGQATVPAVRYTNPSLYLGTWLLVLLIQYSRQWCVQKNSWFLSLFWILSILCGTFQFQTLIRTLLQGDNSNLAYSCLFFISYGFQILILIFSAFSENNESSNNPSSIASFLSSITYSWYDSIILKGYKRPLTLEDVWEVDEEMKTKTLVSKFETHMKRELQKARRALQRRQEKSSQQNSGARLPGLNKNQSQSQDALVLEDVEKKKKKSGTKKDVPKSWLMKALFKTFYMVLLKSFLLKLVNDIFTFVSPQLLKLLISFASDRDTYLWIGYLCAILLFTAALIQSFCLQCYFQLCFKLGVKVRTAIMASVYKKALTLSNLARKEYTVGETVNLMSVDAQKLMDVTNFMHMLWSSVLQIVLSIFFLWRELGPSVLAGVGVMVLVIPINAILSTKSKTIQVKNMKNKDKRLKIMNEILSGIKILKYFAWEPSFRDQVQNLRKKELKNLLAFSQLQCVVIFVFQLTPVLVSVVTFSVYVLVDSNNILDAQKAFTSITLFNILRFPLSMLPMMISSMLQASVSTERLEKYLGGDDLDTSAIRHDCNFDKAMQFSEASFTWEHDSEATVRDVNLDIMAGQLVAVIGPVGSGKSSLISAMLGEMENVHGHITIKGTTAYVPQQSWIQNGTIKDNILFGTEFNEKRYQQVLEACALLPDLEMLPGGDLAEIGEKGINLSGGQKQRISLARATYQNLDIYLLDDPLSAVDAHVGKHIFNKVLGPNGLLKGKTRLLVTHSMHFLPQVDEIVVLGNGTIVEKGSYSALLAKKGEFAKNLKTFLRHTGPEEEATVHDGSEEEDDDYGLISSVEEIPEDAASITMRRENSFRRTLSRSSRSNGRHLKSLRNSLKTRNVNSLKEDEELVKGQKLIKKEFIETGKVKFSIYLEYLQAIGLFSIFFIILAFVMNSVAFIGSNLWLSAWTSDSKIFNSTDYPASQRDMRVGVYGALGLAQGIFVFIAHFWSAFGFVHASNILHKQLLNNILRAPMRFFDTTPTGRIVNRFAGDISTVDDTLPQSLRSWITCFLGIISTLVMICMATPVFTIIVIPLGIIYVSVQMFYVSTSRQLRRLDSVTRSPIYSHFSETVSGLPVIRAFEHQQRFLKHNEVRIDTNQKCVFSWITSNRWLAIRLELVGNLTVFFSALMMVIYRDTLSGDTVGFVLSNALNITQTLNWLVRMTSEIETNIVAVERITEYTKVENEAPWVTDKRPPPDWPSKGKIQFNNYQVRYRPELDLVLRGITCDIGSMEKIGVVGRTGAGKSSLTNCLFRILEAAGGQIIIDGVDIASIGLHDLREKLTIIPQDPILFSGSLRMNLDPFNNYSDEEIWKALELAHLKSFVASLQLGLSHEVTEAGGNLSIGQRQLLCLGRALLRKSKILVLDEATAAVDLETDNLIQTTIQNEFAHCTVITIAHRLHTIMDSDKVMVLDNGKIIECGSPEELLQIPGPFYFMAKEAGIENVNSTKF

## CC(CCC(=O)NC(CCCCNC(=S)Nc1ccc(-c2c3ccc(=O)cc-3oc3cc(O)ccc23)c(C(=O)O)c1)C(=O)O)C1CCC2C3C(O)CC4CC(O)CCC4(C)C3CC(O)C12C (stereo not drawn) [CLF, cholyl lysyl fluorescein]
OATP1B1
  uptake of CLF into OATP1B1 cells: very weak but consistent
ABCC2; 10 μg total protein, presence or absence of 4 mmol/L ATP
  Vmax of ABCC2 mediated transport of CLF: 436±215
ABCC2; compared to control wild type Sf21 membrane vesicles
  CLF transport in ABCC2 containing membrane vesicles: much higher CLF transport rates
